Columns and labels:
[1] = biological target: T1, Estrogen receptor (Homo sapiens, UniProt P03372)
T1 sequence (P03372 whole entry): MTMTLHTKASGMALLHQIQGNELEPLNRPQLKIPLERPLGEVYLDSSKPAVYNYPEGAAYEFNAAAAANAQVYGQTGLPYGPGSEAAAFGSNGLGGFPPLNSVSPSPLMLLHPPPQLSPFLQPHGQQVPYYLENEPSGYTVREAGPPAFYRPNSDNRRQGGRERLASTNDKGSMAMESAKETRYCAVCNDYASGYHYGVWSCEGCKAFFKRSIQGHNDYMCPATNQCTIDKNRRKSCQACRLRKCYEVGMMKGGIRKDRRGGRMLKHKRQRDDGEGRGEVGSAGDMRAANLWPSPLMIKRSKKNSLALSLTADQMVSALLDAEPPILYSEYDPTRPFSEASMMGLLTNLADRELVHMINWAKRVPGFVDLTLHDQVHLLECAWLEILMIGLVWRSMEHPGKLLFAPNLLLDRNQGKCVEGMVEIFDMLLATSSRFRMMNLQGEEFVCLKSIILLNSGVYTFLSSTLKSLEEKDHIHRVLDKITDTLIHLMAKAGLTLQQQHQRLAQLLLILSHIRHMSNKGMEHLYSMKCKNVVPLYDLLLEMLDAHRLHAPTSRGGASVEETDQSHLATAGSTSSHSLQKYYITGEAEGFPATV
Description: Binding affinity for human estrogen receptor alpha

[2] = biological target: Estrogen receptor beta (Homo sapiens, UniProt Q92731)
Sequence of Estrogen receptor beta (Q92731 whole entry): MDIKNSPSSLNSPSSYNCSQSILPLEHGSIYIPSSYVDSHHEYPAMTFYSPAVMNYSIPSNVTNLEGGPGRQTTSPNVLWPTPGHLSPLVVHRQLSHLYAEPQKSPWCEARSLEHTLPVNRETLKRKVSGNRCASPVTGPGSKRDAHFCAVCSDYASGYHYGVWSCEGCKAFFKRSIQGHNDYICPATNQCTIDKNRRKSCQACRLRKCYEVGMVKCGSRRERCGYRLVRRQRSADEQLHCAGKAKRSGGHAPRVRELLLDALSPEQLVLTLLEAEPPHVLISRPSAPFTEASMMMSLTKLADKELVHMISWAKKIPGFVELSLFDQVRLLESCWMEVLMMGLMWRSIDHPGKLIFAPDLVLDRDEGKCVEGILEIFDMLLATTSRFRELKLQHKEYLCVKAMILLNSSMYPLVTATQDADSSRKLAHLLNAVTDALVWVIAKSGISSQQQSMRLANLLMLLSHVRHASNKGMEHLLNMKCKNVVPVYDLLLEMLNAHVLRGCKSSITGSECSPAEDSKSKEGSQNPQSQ
Description: Binding affinity for human estrogen receptor beta

[3] = test system: MCF7; test: Inhibition of MCF-7 cancer cell proliferation; assay type: functional, cell-based; details: Homo sapiens
[4] = test system: MCF7; test: Inhibition of MCF-7 cancer cell proliferation; Average of 7 measurements; assay type: functional, cell-based; details: Homo sapiens
[5] = test system: MCF7; test: Inhibition of MCF-7 cancer cell proliferation; Average of 2 measurements; assay type: functional, cell-based; details: Homo sapiens
[6] = test system: MCF7; test: Inhibition of MCF-7 cancer cell proliferation; Average of 5 measurements; assay type: functional, cell-based; details: Homo sapiens

| SMILES | IC50 [1] | IC50 [2] | IC50 [3] | IC50 [4] | IC50 [5] | IC50 [6] |
| --- | --- | --- | --- | --- | --- | --- |
| Oc1ccc([C@H]2Sc3cc(O)ccc3S[C@H]2c2ccc(OCCN3CCCC3)cc2)cc1 | 18 nM | 266 nM | 123 nM | – | – | – |
| Oc1ccc([C@H]2Sc3cc(O)ccc3S[C@H]2c2ccc(OCCN3CCCCC3)c(Br)c2)cc1 | 5 nM | 111 nM | 67 nM | – | – | – |
| Oc1ccc([C@H]2Sc3cc(O)ccc3S[C@H]2c2ccc(OCCN3CCCC3)c(Br)c2)cc1 | 4 nM | 87 nM | 114 nM | – | – | – |
| Oc1ccc([C@H]2Sc3cc(O)ccc3O[C@H]2c2ccc(OCCN3CCCCC3)cc2)cc1 | – | – | – | 3 nM | – | – |
| Oc1cccc([C@H]2Sc3cc(O)ccc3S[C@H]2c2ccc(OCCN3CCCCC3)c(Br)c2)c1 | 4 nM | 161 nM | 152 nM | – | – | – |
| Oc1ccc([C@H]2Sc3cc(O)ccc3S[C@H]2c2ccc(OCCN3CCCCC3)cc2)cc1 | 21 nM | 326 nM | 112 nM | – | – | – |
| Oc1cccc([C@H]2Sc3cc(O)ccc3O[C@H]2c2ccc(OCCN3CCCCC3)cc2)c1 | 4 nM | – | – | – | 0.4 nM | – |
| Oc1cccc([C@H]2Sc3cc(O)ccc3O[C@H]2c2ccc(OCCN3CCCC3)cc2)c1 | 1 nM | 38 nM | – | – | – | 0.6 nM |
| Oc1cccc([C@H]2Sc3cc(O)ccc3S[C@H]2c2ccc(OCCN3CCCCC3)cc2)c1 | 15 nM | 583 nM | 564 nM | – | – | – |
